Test results reported in patent US7157455B2, “4-Aminopyrimidine-5-one derivatives” (Hoffmann-La Roche Inc., priority 2003, dated 2007).
Like-named read-outs stand apart in the source and are kept apart here.

Columns and labels:
human cyclin B-CDK1 = human cyclin B-CDK1 (Homo sapiens, UniProt P06493); experiment: FlashPlate kinase assay, IC50 measurement, cyclin B-CDK1; format: biochemical; conditions: Rb protein substrate, 1 μM ATP
Description: (§1) To determine inhibition of Cdk4, Cdk2 and Cdk1 activity, kinase assays were conducted using FlashPlate™ assays (NEN™-Life Science Products). FlashPlate assays were performed using recombinant human cyclin B-CDK1, human cyclin E-CDK2 or human cyclin D1-CDK4 complexes. GST-cyclinE (GST-cycE), CDK2, GST-cyclinB (GST-cycB), CDK1, GST-CDK4 and cyclin D1 (cycD1) cDNA clones in baculovirus vectors were provided by Dr. W. Harper at the Baylor College of Medicine, Houston, Tex. Proteins were co-expressed in High Five™ insect cells and the complex was purified on glutathione Sepharose resin (Pharmacia, Piscataway, N.J.) as previously described (Harper, J. W. et al. Cell 1993, 75, 805–816). A 6×-Histidine tagged truncated form of retinoblastoma (Rb) protein (amino acid 386–928) was used as the substrate for the cycD1-CDK4, cycB-CDK1 and the cycE-CDK2 assays (the expression plasmid was provided by Dr. Veronica Sullivan, Department of Molecular Virology, Roche Research Centre, Welwyn Garden City, United Kingdom). The Rb protein is a natural substrate for phosphorylation by CDK4, CDK2 and CDK1 (see Herwig and Strauss Eur. J. Biochem. Vol. 246 (1997) pp. 581–601 and the references cited therein).
(§2) The expression of the 62 Kd protein was under the control of an IPTG inducible promoter in an M15 E. coli strain. Cells were lysed by sonication and purification was carried out by binding lysates at pH 8.0 to a Ni-chelated agarose column pretreated with 1 mM imidazole. The resin was then washed several times with incrementally decreasing pH buffers to pH 6.0, and eluted with 500 mM imidazole. Eluted protein was dialysed against 20 mM HEPES pH 7.5, 30% glycerol, 200 mM NaCl, and 1 mM DTT. Purified Rb fusion protein stocks were quantitated for protein concentration, aliquoted, and stored at −70° C.
(§3) For all three kinase assays reported herein, 96-well FlashPlates were coated with Rb protein at 10 μg/ml, using 100 μl per well. Plates were incubated at 4° C. overnight or at room temperature for 3 hours on a shaker. To control for nonspecific phosphorylation, one row of wells was coated with 100 μl/well coating buffer (20 mM HEPES, 0.2 M NaCl). Plates were then washed twice with wash buffer (0.01% Tween 20 in phosphate-buffered saline). Compounds to be tested (“test compounds”) were added to the wells at 5× final concentration. Reactions were initiated by immediate addition of 40 μl reaction mix (25 mM HEPES, 20 mM MgCl2, 0.002% Tween 20, 2 mM DTT, 1 μM ATP, 4 nM ^33P-ATP) and a sufficient amount of enzyme to give counts that were at least 10-fold above background. Plates were incubated at room temperature on a shaker for 30 minutes. Plates were washed four times with the wash buffer, sealed, and counted on the TopCount scintillation counter (Packard Instrument Co., Downers Grove, Ill. The percent inhibition of Rb phosphorylation, which is a measure of the inhibition of CDK activity, was determined according to the following formula:
(§4) [formula] where “test compound” refers to the average counts per minute of the test duplicates, “nonspecific” refers to the average counts per minute when no CyclinD/Cdk4, etc., was added, and “total” refers to the average counts per minute when no compound was added. The IC50 value is the concentration of test compound that reduces by 50% the protein-kinase induced incorporation of the radiolabel under the test conditions described. B: Ki Measurement

human cyclin D1-CDK4 = human cyclin D1-CDK4 (Homo sapiens, UniProt P11802); experiment: FlashPlate kinase assay, IC50 measurement, cyclin D1-CDK4; format: biochemical; conditions: Rb protein substrate, 1 μM ATP
Chain of human cyclin D1-CDK4 (P11802 whole entry): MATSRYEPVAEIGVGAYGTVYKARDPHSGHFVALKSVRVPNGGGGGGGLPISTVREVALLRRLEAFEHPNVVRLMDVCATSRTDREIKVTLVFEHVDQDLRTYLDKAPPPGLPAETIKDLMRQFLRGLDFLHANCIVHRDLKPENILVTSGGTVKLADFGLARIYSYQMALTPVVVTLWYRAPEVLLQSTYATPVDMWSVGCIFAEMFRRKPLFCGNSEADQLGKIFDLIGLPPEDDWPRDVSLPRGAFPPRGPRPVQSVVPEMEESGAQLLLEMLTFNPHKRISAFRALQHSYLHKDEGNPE
Chain of human cyclin D1-CDK4 (P24385 whole entry partner): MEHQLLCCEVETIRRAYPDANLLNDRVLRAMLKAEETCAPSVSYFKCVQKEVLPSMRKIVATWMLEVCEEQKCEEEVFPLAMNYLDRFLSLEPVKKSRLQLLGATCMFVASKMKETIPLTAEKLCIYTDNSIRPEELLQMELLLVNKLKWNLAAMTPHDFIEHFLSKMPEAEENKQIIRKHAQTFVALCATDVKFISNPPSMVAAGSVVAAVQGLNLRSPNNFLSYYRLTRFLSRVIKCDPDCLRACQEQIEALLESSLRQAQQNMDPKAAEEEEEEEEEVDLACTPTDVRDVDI
Description: as §1, §2, §3, §4

HCT116 cells = experiment: Tetrazolium dye proliferation assay (MTT assay); format: cell-based; conditions: Homo sapiens, HCT-116; 90% inhibition of cell proliferation, HCT116 colorectal carcinoma cell line
Description: The cell line used was HCT116, a colorectal carcinoma cell line obtained from the American Type Cell Culture Collection (ATCC; Rockville, Md.). The cells were grown in McCoy's 5A medium supplemented with 10% FCS and L-glutamine.
Cells were plated at the appropriate seeding density to give logarithmic growth over the course of the assay in a 96-well tissue culture plate. Plates were incubated overnight at 37° C. in a humidified incubator with 5% CO2. The next day, test compounds were serially diluted to four times the final concentration in the appropriate medium containing 1.2% DMSO. One-fourth final volume of each dilution was added in duplicate to the plates containing cells. The same volume of 1.2% DMSO in medium was added to a row of “control wells” such that the final concentration of DMSO in each well was 0.3%. Wells to which no cells were added served as the “blank.” Wells to which no inhibitor was added served as “no inhibitor control.” The plates were) returned to the incubator, and at set time points (determined by their growth curves) plates were analyzed as described below.
3-(4,5-dimethylthiazole-2-yl)-2,5-diphenyl-2H-tetrazolium bromide (thiazolyl blue; MTT; Sigma) was added to each well to yield a final concentration of 1 mg/ml. Plates were returned to the incubator for 2.5–3 hours at 37° C. The MTT-containing medium was removed and the resulting formazan metabolite was solubilized in 100% ethanol with shaking for 15 minutes at room temperature. Absorbance readings were taken in a microtiter plate reader (Dynatech and Molecular Devices plate readers were used interchangeably) at a wavelength of 570 nm with a 650 nm reference. Percent inhibition (% INH) is calculated by subtracting the absorbance of the blank well from all wells, then subtracting the ratio of the average absorbance of each test duplicate (SAVE) by the average of the controls (CAVE) from 1.00. The final number is then multiplied by 100(% INH=(1.00−SAVE/CAVE)×100).

human cyclin E-CDK2 = human cyclin E-CDK2 (Homo sapiens, UniProt P24941); experiment: FlashPlate kinase assay, IC50 measurement, cyclin E-CDK2; format: biochemical
Description: To determine inhibition of Cdk4, Cdk2 and Cdk1 activity, kinase assays were conducted using FlashPlate™ assays (NEN™-Life Science Products). FlashPlate assays were performed using recombinant human cyclin B-CDK1, human cyclin E-CDK2 or human cyclin D1-CDK4 complexes. GST-cyclinE (GST-cycE), CDK2, GST-cyclinB (GST-cycB), CDK1, GST-CDK4 and cyclin D1 (cycD1) cDNA clones in baculovirus vectors were provided by Dr. W. Harper at the Baylor College of Medicine, Houston, Tex.
as §2, §3
[formula] where “test compound” refers to the average counts per minute of the test duplicates, “nonspecific” refers to the average counts per minute when no CyclinD/Cdk4, etc., was added, and “total” refers to the average counts per minute when no compound was added. […] B: Ki Measurement

[1] = Rb protein substrate, 1 μM ATP, read-out: CDK2 IC50
[2] = Rb protein substrate, 1 μM ATP, unit inferred, read-out: CDK2 IC50

Chain of human cyclin B-CDK1 (P06493 whole entry): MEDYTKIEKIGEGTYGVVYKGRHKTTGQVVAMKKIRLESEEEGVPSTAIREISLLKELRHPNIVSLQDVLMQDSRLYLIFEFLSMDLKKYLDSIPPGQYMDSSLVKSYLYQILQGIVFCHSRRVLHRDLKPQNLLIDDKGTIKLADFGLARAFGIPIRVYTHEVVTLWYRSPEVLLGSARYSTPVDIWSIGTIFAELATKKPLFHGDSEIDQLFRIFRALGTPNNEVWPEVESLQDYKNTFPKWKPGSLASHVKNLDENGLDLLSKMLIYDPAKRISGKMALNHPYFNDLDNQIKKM
Chain of human cyclin B-CDK1 (P14635 whole entry partner): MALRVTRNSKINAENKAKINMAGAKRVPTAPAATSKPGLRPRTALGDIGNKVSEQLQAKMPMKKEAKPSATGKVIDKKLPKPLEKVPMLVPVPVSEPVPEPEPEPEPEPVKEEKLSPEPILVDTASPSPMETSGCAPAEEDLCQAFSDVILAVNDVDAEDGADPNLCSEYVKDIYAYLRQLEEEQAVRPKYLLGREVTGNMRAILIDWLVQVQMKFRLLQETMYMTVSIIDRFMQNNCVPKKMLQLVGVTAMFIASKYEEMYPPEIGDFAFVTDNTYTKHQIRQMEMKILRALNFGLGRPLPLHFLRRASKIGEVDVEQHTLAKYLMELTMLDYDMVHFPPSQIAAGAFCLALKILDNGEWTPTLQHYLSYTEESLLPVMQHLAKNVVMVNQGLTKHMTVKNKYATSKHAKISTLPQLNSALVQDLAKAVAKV

| SMILES | melting point | IC50 (human cyclin B-CDK1) [nM] | IC50 (human cyclin D1-CDK4) [nM] | IC90 (HCT116 cells) [nM] | other results |
| --- | --- | --- | --- | --- | --- |
| COc1ccc(F)c(F)c1C(O)c1cnc(Cl)nc1Cl (racemic) [Example 287, rac-(2,4-Dichloro-pyrimidin-5-yl)-(2,3-difluoro-6-methoxy-phenyl)-methanol] | 99 to 101 °C | – | – | – | – |
| COc1ccccc1C(=O)c1cnc(Nc2ccc(N3CCN(C(C)C)CC3)cc2)nc1N [Example 8, [4-Amino-2-[4-(4-isopropyl-piperazin-1-yl)-phenylamino]-pyrimidin-5-yl]-(2-methoxy-phenyl)-methanone] | – | 3560 | 171 | 20900 | IC50 (human cyclin E-CDK2; [1]): 10000 nM |
| CCS(=O)(=O)c1ncc(C(=O)c2cc(F)ccc2OC)c(N)n1 [Example 48, (4-Amino-2-ethanesulfonyl-pyrimidin-5-yl)-(5-fluoro-2-methoxy-phenyl)-methanone] | 174 to 175 °C | – | – | – | – |
| COC(=O)N1CCCC(Nc2ncc(C(=O)c3ccccc3OC)c(N)n2)C1 (stereo not drawn) [Example 54, 3-[4-Amino-5-(2-methoxy-benzoyl)-pyrimidin-2-ylamino]-piperidine-1-carboxylic acid methyl ester] | – | 469 | 459 | 6440 | IC50 (human cyclin E-CDK2; [1]): 713 nM |
| CC[S+]([O-])c1ncc(C(=O)c2cc(F)ccc2OC)c(N)n1 (stereo not drawn) [Example 163, (4-Amino-2-ethanesulfinyl-pyrimidin-5-yl)-(5-fluoro-2-methoxy-phenyl)-methanone] | 150 to 152 °C | – | – | – | – |
| COc1ccc(F)cc1C(=O)c1cnc(NC2CCN(C(=O)OC(C)(C)C)CC2)nc1N [Example 164, 4-[4-Amino-5-(5-fluoro-2-methoxy-benzoyl)-pyrimidin-2-ylamino]-piperidine-1-carboxylic acid tert-butyl ester] | 122 to 124 °C (dec.) | – | – | – | – |
| COc1cc(F)c(F)c(F)c1C(=O)c1cnc(NC2CCN(C(C)=O)CC2)nc1N [Example 204, 1-[4-[4Amino-5-(2,3,4-trifluoro-6-methoxy-benzoyl)-pyrimidin-2-ylamino]-piperidin-1-yl]-ethanone] | – | 128 | 10 | 2400 | IC50 (human cyclin E-CDK2; [2]): 51 nM |
| COc1cc(F)c(F)c(F)c1C(=O)c1cnc(NC2CCN(S(C)(=O)=O)CC2)nc1N [Example 207, [4-Amino-2-(1-methanesulfonyl-piperidin-4-ylamino)-pyrimidin-5-y]-(2,3,4-trifluoro-6-methoxy-phenyl)-methanone] | – | 5 | 1 | 630 | IC50 (human cyclin E-CDK2): 2 nM |
| COc1ccc(F)c(F)c1C(=O)c1cnc(NC2CCN(S(=O)(=O)CCCN3CCN(C)CC3)CC2)nc1N [Example 228, (4-Amino-2-[1-[3-(4-methyl-piperazin-1-yl)-propan-1-sulfonyl]-piperidin-4-ylamino]-pyrimidin-5-yl)-(2,3-difluoro-6-methoxy-phenyl)-methanone] | – | 39 | 1 | 274 | IC50 (human cyclin E-CDK2; [2]): 17 nM |
| CS(=O)(=O)N1CCC(Nc2ncc(C(=O)c3ccccc3)c(N)n2)CC1 [Example 283, [4-Amino-2-(1-methanesulfonyl-piperidin-4-ylamino)-pyrimidin-5-yl]-phenyl-methanone] | 249 to 250 °C | – | – | – | – |
| COc1ccc(F)c(F)c1C(=O)c1cnc(NC2CCN(C=O)CC2)nc1N [Example 284, 4-[4-Amino-5-(2,3-difluoro-6-methoxy-benzoyl)-pyrimidin-2-ylamino]-piperidine-1-carbaldehyde] | 263 °C (dec.) | – | – | – | – |
| COc1ccc(F)c(F)c1C(=O)c1cnc(NC2CCN(S(N)(=O)=O)CC2)nc1N [Example 285, 4-[4-Amino-5-(2,3-difluoro-6-methoxy-benzoyl)-pyrimidin-2-ylamino]-piperidine-1-sulfonic acid amide] | 217 to 218 °C | – | – | – | – |
| COc1ccc(F)c(F)c1C(=O)c1cnc(NC2CCN(S(=O)(=O)NC(C)=O)CC2)nc1N [Example 286, 4-[4-Amino-5-(2,3-difluoro-6-methoxy-benzoyl)-pyrimidin-2-ylamino]-piperidine-1-sulfonic acid acetyl-amide] | 153 °C (dec.) | – | – | – | – |
| COc1ccc(F)c(F)c1C(=O)c1cnc(Cl)nc1Cl [Example 288, (2,4-Dichloro-pyrimidin-5-yl)-(2,3-difluoro-6-methoxy-phenyl)-methanone] | 137 to 139 °C | – | – | – | – |
| COc1ccc(F)c(F)c1C(=O)c1cnc(Cl)nc1N [Example 289, (4-Amino-2-chloro-pyrimidin-5-yl)-(2,3-difluoro-6-methoxy-phenyl)-methanone] | 238 to 239 °C (dec.) | – | – | – | – |
| COc1ccc(F)c(F)c1C(=O)c1cnc(N[C@H]2CC[C@H](NCCO)CC2)nc1N [Example 290, Trans-[4-Amino-2-[4-(2-hydroxy-ethylamino)-cyclohexylamino]-pyrimidin-5-yl}-(2,3-difluoro-6-methoxy-phenyl)-methanone] | – | 18 | 20 | 179 | IC50 (human cyclin E-CDK2; [1]): 5 nM |
| COc1ccc(F)c(F)c1C(=O)c1cnc(N[C@H]2CC[C@H](NS(=O)(=O)CCCN3CCOCC3)CC2)nc1N [Example 294, Trans-3-Morpholin-4-yl-propane-1-sulfonic acid [4-[4-amino-5-(2,3-difluoro-6-methoxy-benzoyl)-pyrimidin-2-ylamino]-cyclohexyl]-amide] | – | 8 | 15 | 374 | IC50 (human cyclin E-CDK2; [1]): 5 nM |
| COc1ccc(F)c(F)c1C(=O)c1cnc(N[C@H]2CC[C@H](N3CCCS3(=O)=O)CC2)nc1N [Example 298, Trans-[4-Amino-2-[4-(1,1-dioxo-1λ^6-isothiazolidin-2-yl)-cyclohexylamino]-pyrimidin-5-yl]-(2,3-difluoro-6-methoxy-phenyl)-methanone] | – | 28 | 5 | 320 | IC50 (human cyclin E-CDK2; [1]): 8 nM |
